Results taken from patent US12157730B2, “Heteroaryl derivative, method for producing same, and pharmaceutical composition comprising same as effective component” (VORONOI INC., priority 2019, dated 2024).

biological target: T1, Ba/F3 cell EGFR Exon20 ins NPH (Homo sapiens, UniProt P00533, INS773NPH); assay: Ba/F3 cell proliferation suppression, EGFR Exon20 ins NPH; type: cell-based; conditions: GI50 class; Ba/F3 cell line with NPH inserted at Exon20 of EGFR; 72 hours
T1 construct: expressed in transfected cells; host or cells: Ba/F3
Procedure, shortened: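 Cells (3000–5000/well) plated 24 h before compound, 12-point 3-fold dilutions at 0.3 nM to 50 um final; Ba/F3 lines grown with 5 ng/ml IL-3. Viability by CellTiter-Glo luminescence after 72 h, growth ratio vs control, GI50 from curves; triplicate.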

Q: How did the “Ba/F3 (NPH) Activity” value turn out when `C=CC(=O)Nc1cc(Nc2cc(N3OCC[C@@H]3c3ccc(F)cc3F)ncn2)c(OC)cc1N1CCN(C2CC2)C[C@@H]1C` [compound 474, N-(2-((S)-4-cyclopropyl-2-methylpiperazine-(2,4-1-yl)-5-((6-((R)-3-difluorophenyl)isoxazolidine-2-yl)pyrimidine-4-yl)amino)-4-methoxyphenyl) acrylamide] was run?
A: A (GI50 < 50 nM)

Q: With `C=CC(=O)Nc1cc(Nc2cc(N3OCC[C@@H]3c3ccc(Cl)c(F)c3)ncn2)c(OC)cc1N1CCC(N2CCN(C3CC3)CC2)CC1` [Example 63, N-(5-((6-((R)-3-(4-chloro-3-fluorophenyl)isoxazolidine-2-yl)pyrimidine-4-yl)amino)-2-(4-(4-cyclopropylpiperazine-1-yl)piperidine-1-yl)-4-methoxyphenyl) acrylamide] as the compound, how does the “Ba/F3 (NPH) Activity” value read?
A: A (GI50 < 50 nM)

Q: Which “Ba/F3 (NPH) Activity” value does the source give for `C=CC(=O)Nc1cc(Nc2cc(N3OCC[C@@H]3Cc3cccc(Cl)c3F)ncn2)c(OC)cc1N1CCC(N2C[C@@H]3C[C@H]2CO3)CC1` [compound 1022, N-(2-(4-((1S,4S)-2-oxa-5-azabicyclo [2.2.1]heptane-5-yl)piperidine-1-yl)-5-((6-((S)-3-(3-chloro-2-fluorobenzyl)isoxazolidine-2-yl)pyrimidine-4-yl)amino)-4-methoxyphenyl) acrylamide] here?
A: A (GI50 < 50 nM)

Q: `C=CC(=O)Nc1cc(Nc2cc(N3OCC[C@@H]3c3cccc(Cl)c3)ncn2)c(OC)cc1N1CCN(C2CC2)CC1` [compound 463, N-(5-((6-((R)-3-(3-chlorophenyl)isoxazolidine-2-yl)pyrimidine-4-yl)amino)-2-(4-cyclopropylpiperazine-1-yl)-4-methoxyphenyl) acrylamide] was tested. Which “Ba/F3 (NPH) Activity” value did it give?
A: B (50 nM ≤ GI50 < 500 nM)

Q: How did the “Ba/F3 (NPH) Activity” value turn out when `C=CC(=O)Nc1cc(Nc2cc(N3OCC[C@@H]3c3ccc(Cl)c(F)c3)ncn2)c(OC)cc1N1CCC(N2C[C@@H](C)O[C@@H](C)C2)CC1` [compound 709, N-(5-((6-((R)-3-(4-chloro-3-fluorophenyl)isoxazolidine-2-yl)pyrimidine-4-yl)amino)-2-(4-((2S,6R)-2,6-dimethylmorpholino)piperidine-1-yl)-4-methoxyphenyl) acrylamide] was run?
A: A (GI50 < 50 nM)

Q: Which “Ba/F3 (NPH) Activity” value does the source give for `C=CC(=O)Nc1cc(Nc2cc(N3OCC[C@@H]3c3ccc(F)c(Cl)c3)ncn2)c(OC)cc1N1CCC(N2CCN(CC3CC3)CC2)CC1` [Example 94, N-(5-((6-((R)-3-(3-chloro-4-fluorophenyl)isoxazolidine-2-yl)pyrimidine-4-yl)amino)-2-(4-(4-(cyclopropylmethyl)piperazine-1-yl)piperidine-1-yl)-4-methoxyphenyl) acrylamide] here?
A: A (GI50 < 50 nM)

Q: For `C=CC(=O)Nc1cc(Nc2cc(N3OCC[C@@H]3c3cccc(Cl)c3Cl)ncn2)c(OC)cc1N1CCN(C(C)=O)CC1` [compound 519, N-(2-(4-acetylpiperazine-1-yl)-5-((6-((R)-3-(2,3-dichlorophenyl)isoxazolidine-2-yl)pyrimidine-4-yl)amino)-4-methoxyphenyl) acrylamide], which “Ba/F3 (NPH) Activity” value is on record?
A: A (GI50 < 50 nM)

Q: `C=CC(=O)Nc1cc(Nc2cc(N3OCC[C@@H]3c3ccc(F)c(F)c3F)ncn2)c(OC)cc1N1CCN(CC)CC1` [compound 570, N-(2-(4-ethylpiperazine-1-yl)-4-methoxy-5-((6-((R)-3-(2,3,4-trifluorophenyl)isoxazolidine-2-yl)pyrimidine-4-yl)amino)phenyl) acrylamide] was tested. Which “Ba/F3 (NPH) Activity” value did it give?
A: A (GI50 < 50 nM)

Q: For `C=CC(=O)Nc1cc(Nc2cc(N3OCC[C@@H]3Cc3cccc(F)c3)ncn2)c(OC)cc1N1CCC(N2CCN(C3CC3)[C@H](C)C2)CC1` [compound 994, N-(2-(4-((R)-4-cyclopropyl-3-methylpiperazine-1-yl)piperidine-1-yl)-5-((6-((S)-3-(3-fluorobenzyl)isoxazolidine-2-yl)pyrimidine-4-yl)amino)-4-methoxyphenyl) acrylamide], which “Ba/F3 (NPH) Activity” value is on record?
A: A (GI50 < 50 nM)

Q: How did the “Ba/F3 (NPH) Activity” value turn out when `C=CC(=O)Nc1cc(Nc2cc(N3OCC[C@@H]3c3ccc(Cl)c(Cl)c3F)ncn2)c(OC)cc1N1CCC(N2CCN(C(C)=O)CC2)CC1` [compound 774, N-(2-(4-(4-acetylpiperazine-1-yl)piperidine-1-yl)-5-((6-((R)-3-(3,4-dichloro-2-fluorophenyl)isoxazolidine-2-yl)pyrimidine-4-yl)amino)-4-methoxyphenyl) acrylamide] was run?
A: B (50 nM ≤ GI50 < 500 nM)

Q: With `C=CC(=O)Nc1cc(Nc2cc(N3OCC[C@@H]3Cc3cccc(Cl)c3OC)ncn2)c(OC)cc1N1CCC(N2C[C@H]3C[C@@H]2CO3)CC1` [compound 1055, N-(2-(4-((1R,4R)-2-oxa-5-azabicyclo [2.2.1]heptane-5-yl)piperidine-1-yl)-5-((6-((S)-3-(3-chloro-2-methoxybenzyl)isoxazolidine-2-yl)pyrimidine-4-yl)amino)-4-methoxyphenyl) acrylamide] as the compound, how does the “Ba/F3 (NPH) Activity” value read?
A: A (GI50 < 50 nM)

Q: How did the “Ba/F3 (NPH) Activity” value turn out when `C=CC(=O)Nc1cc(Nc2cc(N3OCC[C@@H]3c3cccc(C)c3F)ncn2)c(OC)cc1N1CCN(C2CC2)CC1` [compound 909, N-(2-(4-cyclopropylpiperazine-1-yl)-5-((6-((R)-3-(2-fluoro-3-methylphenyl)isoxazolidine-2-yl)pyrimidine-4-yl)amino)-4-methoxyphenyl) acrylamide] was run?
A: A (GI50 < 50 nM)

Q: `C=CC(=O)Nc1cc(Nc2cc(N3OCC[C@@H]3c3ccc(Cl)cc3)ncn2)c(OC)cc1N1CCC(N2CCN(C(C)C)CC2)CC1` [compound 807, N-(5-((6-((R)-3-(4-chlorophenyl)isoxazolidine-2-yl)pyrimidine-4-yl)amino)-2-(4-(4-isopropylpiperazine-1-yl)piperidine-1-yl)-4-methoxyphenyl) acrylamide] was tested. Which “Ba/F3 (NPH) Activity” value did it give?
A: A (GI50 < 50 nM)

Q: `C=CC(=O)Nc1cc(Nc2cc(N3OCC[C@@H]3c3ccc(F)cc3F)ncn2)c(OC)cc1N1CCC(N2CCN(C3COC3)CC2)CC1` [Example 197, N-(5-((6-((R)-3-(2,4-difluorophenyl)isoxazolidine-2-yl)pyrimidine-4-yl)amino)-4-methoxy-2-(4-(4-(oxetane-3-yl)piperazine-1-yl)piperidine-1-yl)phenyl)acrylamide] was tested. Which “Ba/F3 (NPH) Activity” value did it give?
A: A (GI50 < 50 nM)

Q: Which “Ba/F3 (NPH) Activity” value does the source give for `C=CC(=O)Nc1cc(Nc2cc(N3OCC[C@@H]3Cc3cccc(Cl)c3F)ncn2)c(OC)cc1N1CCN(C2CC2)CC1` [compound 1017, N-(5-((6-((S)-3-(3-chloro-2-fluorobenzyl)isoxazolidine-2-yl)pyrimidine-4-yl)amino)-2-(4-cyclopropylpiperazine-1-yl)-4-methoxyphenyl) acrylamide] here?
A: A (GI50 < 50 nM)

Q: For `C=CC(=O)Nc1cc(Nc2cc(N3OCC[C@@H]3c3cc(F)cc(Cl)c3)ncn2)c(OC)cc1N1CCC(N2C[C@H]3CCN(C)[C@H]3C2)CC1` [compound 539, N-(5-((6-((R)-3-(3-chloro-5-fluorophenyl)isoxazolidine-2-yl)pyrimidine-4-yl)amino)-4-methoxy-2-(4-((3aR,6aR)-1-methylhexahydropyrrolo [3,4-b]pyrrole-5(1H)-yl)piperidine-1-yl)phenyl)acrylamide], which “Ba/F3 (NPH) Activity” value is on record?
A: A (GI50 < 50 nM)

Q: How did the “Ba/F3 (NPH) Activity” value turn out when `C=CC(=O)Nc1cc(Nc2cc(N3OCC[C@@H]3c3cc(F)cc(Cl)c3)ncn2)c(OC)cc1N1CCC(N2CCN(C3CC3)[C@H](C)C2)CC1` [Example 158, N-(5-((6-((R)-3-(3-chloro-5-fluorophenyl)isoxazolidine-2-yl)pyrimidine-4-yl)amino)-2-(4-((R)-4-cyclopropyl-3-methylpiperazine-1-yl)piperidine-1-yl)-4-methoxyphenyl) acrylamide] was run?
A: A (GI50 < 50 nM)

Q: With `C=CC(=O)Nc1cc(Nc2cc(N3OCC[C@H]3Cc3ccccc3)ncn2)c(OC)cc1N1CCN(CCN(C)C)CC1` [compound 976, N-(5-((6-((R)-3-benzylisoxazolidine-2-yl)pyrimidine-4-yl)amino)-2-(4-(2-(dimethylamino)ethyl)piperazine-1-yl)-4-methoxyphenyl) acrylamide] as the compound, how does the “Ba/F3 (NPH) Activity” value read?
A: C (500 nM ≤ GI50 < 5000 nM)

Q: For `C=CC(=O)Nc1cc(Nc2cc(N3OCC[C@H]3c3cc(F)cc(F)c3)ncn2)c(OC)cc1N1CCC(N2CCN(C3CC3)CC2)CC1` [Example 118], which “Ba/F3 (NPH) Activity” value is on record?
A: C (500 nM ≤ GI50 < 5000 nM)

Q: `C=CC(=O)Nc1cc(Nc2cc(N3OCC[C@@H]3c3ccc(F)c(Cl)c3)ncn2)c(OC)cc1N1CCN(C)CC1` [compound 702, N-(5-((6-((R)-3-(3-chloro-4-fluorophenyl)isoxazolidine-2-yl)pyrimidine-4-yl)amino)-4-methoxy-2-(4-methylpiperazine-1-yl)phenyl)acrylamide] was tested. Which “Ba/F3 (NPH) Activity” value did it give?
A: A (GI50 < 50 nM)

Q: How did the “Ba/F3 (NPH) Activity” value turn out when `C=CC(=O)Nc1cc(Nc2cc(N3OCC[C@@H]3c3cccc(C)c3F)ncn2)c(OC)cc1N1CCC(N(C)C)CC1` [compound 864, N-(2-(4-(dimethylamino)piperidine-1-yl)-5-((6-((R)-3-(2-fluoro-3-methylphenyl)isoxazolidine-2-yl)pyrimidine-4-yl)amino)-4-methoxyphenyl) acrylamide] was run?
A: A (GI50 < 50 nM)

Q: For `C=CC(=O)Nc1cc(Nc2cc(N3OCC[C@@H]3c3ccc(C)nc3)ncn2)c(OC)cc1N1C[C@H]2C[C@@H]1CN2CC` [Example 51, N-(2-((1R,4R)-5-ethyl-2,5-diazabicyclo [2.2.1]heptane-2-yl)-4-methoxy-5-((6-((R)-3-(6-methylpyridine-3-yl)isoxazolidine-2-yl)pyrimidine-4-yl)amino)phenyl) acrylamide], which “Ba/F3 (NPH) Activity” value is on record?
A: C (500 nM ≤ GI50 < 5000 nM)

Q: With `C=CC(=O)Nc1cc(Nc2cc(N3OCC[C@@H]3c3cc(F)cc(F)c3)ncn2)c(OC)cc1N1CCN(C)C[C@@H]1C` [compound 919, N-(5-((6-((R)-3-(3,5-difluorophenyl)isoxazolidine-2-yl)pyrimidine-4-yl)amino)-2-((S)-2,4-dimethylpiperazine-1-yl)-4-methoxyphenyl) acrylamide] as the compound, how does the “Ba/F3 (NPH) Activity” value read?
A: A (GI50 < 50 nM)
